Measurements from ChEMBL document CHEMBL3397017, “Discovery of a new series of potent prostacyclin receptor agonists with in vivo activity in rat” (Bioorg Med Chem Lett, 2015).
Calls of active or inactive are those of the source. The calls are words filed in the database; no cut-off is given here.

Assays:
Prostacyclin receptor [1] = target: T1, Prostacyclin receptor (Homo sapiens, UniProt P43119); experiment: Agonist activity at human recombinant IP receptor expressed in CHO-K1 cells incubated for 1 hr by HTRF cAMP assay; format: functional, cell-based
T1 sequence (P43119 whole entry): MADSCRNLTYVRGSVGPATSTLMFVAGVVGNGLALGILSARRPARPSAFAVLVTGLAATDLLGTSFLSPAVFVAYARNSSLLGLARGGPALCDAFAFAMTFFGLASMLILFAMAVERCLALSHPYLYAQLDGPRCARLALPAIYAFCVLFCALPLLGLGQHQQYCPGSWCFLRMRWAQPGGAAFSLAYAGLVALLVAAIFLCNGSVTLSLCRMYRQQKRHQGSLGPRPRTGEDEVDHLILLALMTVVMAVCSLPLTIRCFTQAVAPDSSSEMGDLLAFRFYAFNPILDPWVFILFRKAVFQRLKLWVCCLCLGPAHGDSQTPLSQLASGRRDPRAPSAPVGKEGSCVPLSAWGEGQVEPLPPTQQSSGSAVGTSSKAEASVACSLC

Prostacyclin receptor [2] = target: T1, Prostacyclin receptor; experiment: Intrinsic activity at human recombinant IP receptor expressed in CHO-K1 cells incubated for 1 hr by HTRF cAMP assay relative to 1 uM iloprost; format: functional, cell-based
Prostacyclin receptor [3] = target: Prostacyclin receptor (Rattus norvegicus, UniProt P43253); experiment: Agonist activity at rat recombinant IP receptor expressed in CHO-K1 cells incubated for 1 hr by HTRF cAMP assay; format: functional, cell-based
Prostacyclin receptor (Rattus norvegicus, UniProt P43253), sequence (P43253 whole entry): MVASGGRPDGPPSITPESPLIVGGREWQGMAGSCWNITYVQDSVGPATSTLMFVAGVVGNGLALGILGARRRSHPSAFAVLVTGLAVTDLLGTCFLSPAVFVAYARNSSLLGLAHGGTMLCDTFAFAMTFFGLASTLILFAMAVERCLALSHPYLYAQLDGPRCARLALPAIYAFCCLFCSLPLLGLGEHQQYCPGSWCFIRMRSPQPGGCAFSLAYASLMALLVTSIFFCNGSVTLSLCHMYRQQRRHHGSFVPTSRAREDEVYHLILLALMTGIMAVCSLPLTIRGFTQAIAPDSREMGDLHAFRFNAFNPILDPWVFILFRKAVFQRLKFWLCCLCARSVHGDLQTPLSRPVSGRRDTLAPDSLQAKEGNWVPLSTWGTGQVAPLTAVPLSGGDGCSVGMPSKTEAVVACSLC

[4] = target: Prostacyclin receptor (Rattus norvegicus) (UniProt P43253); experiment: Intrinsic activity at rat recombinant IP receptor expressed in CHO-K1 cells incubated for 1 hr by HTRF cAMP assay relative to 1 uM iloprost; format: functional, cell-based
Prostacyclin receptor (Rattus norvegicus), sequence (P43253 whole entry): as above

[5] = target: T2, Prostaglandin D2 receptor (Homo sapiens, UniProt Q13258); experiment: Agonist activity at human recombinant DP1 receptor expressed in melanophores assessed as induction of pigment redistribution incubated for 90 mins
T2 sequence (Q13258 whole entry): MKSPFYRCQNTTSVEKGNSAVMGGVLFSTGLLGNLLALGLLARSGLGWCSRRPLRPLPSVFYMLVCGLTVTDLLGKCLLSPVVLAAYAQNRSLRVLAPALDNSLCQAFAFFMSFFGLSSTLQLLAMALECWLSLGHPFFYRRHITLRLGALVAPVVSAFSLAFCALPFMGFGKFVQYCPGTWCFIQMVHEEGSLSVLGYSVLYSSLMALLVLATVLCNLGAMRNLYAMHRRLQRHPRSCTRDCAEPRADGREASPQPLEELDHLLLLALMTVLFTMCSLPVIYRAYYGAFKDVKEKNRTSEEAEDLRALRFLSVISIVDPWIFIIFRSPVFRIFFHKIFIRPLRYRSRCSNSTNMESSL

[6] = Half life in sc dosed rat; format: ADME, organism-based; settings: in vivo
Rattus norvegicus [7] = experiment: Prevention of right ventricular weight increase in rat model of monocrotaline-induced pulmonary arterial hypertension administered subcutaneously twice daily for 21 days; format: functional, organism-based; settings: Heart right ventricle
Rattus norvegicus [8] = experiment: Prevention of right ventricular weight increase in rat model of monocrotaline-induced pulmonary arterial hypertension at 30 mg/kg, sc administered twice daily for 21 days relative to sham animal (reference value: 19 no unit); format: functional, Heart right ventricle
Rattus norvegicus [9] = experiment: Prevention of right ventricular weight increase in rat model of monocrotaline-induced pulmonary arterial hypertension at 10 mg/kg, sc administered twice daily for 21 days relative to sham animal (reference value: 19 no unit); format: functional, Heart right ventricle
Rattus norvegicus [10] = experiment: Prevention of right ventricular weight increase in rat model of monocrotaline-induced pulmonary arterial hypertension at 1 mg/kg, sc administered twice daily for 21 days relative to sham animal (reference value: 19 no unit); format: functional, Heart right ventricle; settings: route subcutaneous
Rattus norvegicus [11] = experiment: Improvement in right ventricular systolic pressure in rat model of monocrotaline-induced pulmonary arterial hypertension at 10 mg/kg, sc administered twice daily for 21 days; format: functional, organism-based; parameters: dose 10 mg/kg; settings: Heart right ventricle
Homo sapiens = species on record: Homo sapiens; experiment: Selectivity index, ratio of EC50 for human recombinant DP1 receptor to EC50 for human recombinant IP receptor
Liver microsome [12] = experiment: Stability in rat liver microsomes; format: ADME
Liver microsome [13] = experiment: Stability in human liver microsomes; format: ADME
[14] = target: T2, Prostaglandin D2 receptor; experiment: Agonist activity at human recombinant DP1 receptor by melanophore assay
[15] = Oral bioavailability in rat; format: ADME, organism-based; settings: in vivo
[16] = Half life in iv dosed rat; format: ADME, organism-based; settings: in vivo

Row | Compound | EC50 (Prostacyclin receptor [1]) | Intrinsic activity (Prostacyclin receptor [2]) | EC50 (Prostacyclin receptor [3]) | Intrinsic activity [4] | EC50 [5] | Stability (Liver microsome [12]) | Stability (Liver microsome [13]) | also measured
1 | O=C(O)COc1cccc2c1CCC(Cn1ncc(-c3ccccc3)c(-c3cccc(F)c3)c1=O)C2 (racemic) | 260 nM | 100% | 790 nM | 121% | – | – | – | –
2 | O=C(O)COc1cccc2c1CCC(Cn1nc(-c3cccc(F)c3)c(-c3ccccc3)cc1=O)C2 (racemic) | 1060 nM | 88% | 2370 nM | 99% | – | – | – | –
3 | Cc1cccc(-c2cc(=O)n(CC3CCc4c(cccc4OCC(=O)O)C3)nc2-c2ccccc2)c1 (racemic) | 180 nM | 97% | 370 nM | 72% | 25 nM | – | – | –
4 | COc1ccc(-c2cc(=O)n(CC3CCc4c(cccc4OCC(=O)O)C3)nc2-c2ccccc2)cc1 (racemic) | 2670 nM | 47% | > 10000 nM | – | – | Unstable | Unstable | –
5 | COc1ccc(-c2nn(CC3CCc4c(cccc4OCC(=O)O)C3)c(=O)cc2-c2ccccc2)cc1 (racemic) | 8.5 nM | 80% | 12.5 nM | 93% | 1.7 nM | Unstable | Unstable | –
6 | COc1cccc(-c2cnn(CC3CCc4c(cccc4OCC(=O)O)C3)c(=O)c2-c2ccccc2)c1F (racemic) | 10 nM | 78% | 40 nM | 98% | 40 nM | Unstable | Unstable | –
7 | COc1ccc(-c2nn(CC3CCc4c(cccc4OCC(=O)O)C3)c(=O)cc2-c2ccccc2)cc1F (racemic) | 10 nM | 80% | 51 nM | 75% | 3 nM | Unstable | Unstable | –
8 | O=C(O)COc1cccc2c1CCC(Cn1ncc(-c3ccccc3F)c(-c3ccccc3)c1=O)C2 (racemic) | 120 nM | 106% | 420 nM | 99% | 31 nM | – | – | –
9 | O=C(O)COc1cccc2c1CCC(Cn1ncc(-c3cccc(Cl)c3)c(-c3ccccc3)c1=O)C2 (racemic) | 86 nM | 93% | 260 nM | 98% | – | – | – | –
10 | COc1ccc(-c2cnn(CC3CCc4c(cccc4OCC(=O)O)C3)c(=O)c2-c2ccccc2)cc1 (racemic) | 1060 nM | 73% | > 3000 nM | – | – | Unstable | Unstable | –
11 | COc1ccc(-c2nn(CC3CCc4c(cccc4OCC(=O)O)C3)c(=O)cc2-c2ccccc2)c(F)c1 (racemic) | 20 nM | 78% | 112 nM | 76% | 31 nM | Unstable | Unstable | –
12 | O=C(O)COc1cccc2c1CCC(Cn1ncc(-c3ccccc3)c(-c3ccc(F)cc3)c1=O)C2 (racemic) | 20 nM | 80% | 170 nM | 104% | – | – | – | –
13 | COc1cccc(-c2cc(=O)n(CC3CCc4c(cccc4OCC(=O)O)C3)nc2-c2ccc(F)cc2)c1 (racemic) | 62 nM | 91% | 620 nM | 102% | 24 nM | – | – | –

The next lines start with results.

Row | EC50 (Prostacyclin receptor [1]) | Intrinsic activity (Prostacyclin receptor [2]) | EC50 (Prostacyclin receptor [3]) | Intrinsic activity [4] | EC50 [5] | Stability (Liver microsome [12]) | Stability (Liver microsome [13]) | Compound | also measured
14 | 380 nM | 63% | 900 nM | 97% | 44 nM | – | – | O=C(O)COc1cccc2c1CCC(Cn1nc(-c3ccccc3)c(-c3cccc(F)c3)cc1=O)C2 (racemic) | –
15 | 38 nM | 87% | 110 nM | 101% | 36 nM | Stable | Stable | O=C(O)COc1cccc2c1CCC(Cn1ncc(-c3cccc(F)c3F)c(-c3ccccc3)c1=O)C2 (racemic) | half-life [6]: 2.5 h; Activity (Rattus norvegicus [7]): Dose-dependent effect; fold change (FC) (Rattus norvegicus [8]; route subcutaneous): 13; fold change (FC) (Rattus norvegicus [9]; route subcutaneous): 9; fold change (FC) (Rattus norvegicus [10]): 9; Activity (Rattus norvegicus [11]): Active; Ratio EC50 (Homo sapiens): 10; EC50 [14]: 400 nM
16 | 33 nM | 94% | 266 nM | 103% | 42 nM | – | – | O=C(O)COc1cccc2c1CCC(Cn1ncc(-c3cccc(F)c3F)c(-c3ccc(F)cc3)c1=O)C2 (racemic) | –
17 | 24 nM | 67% | 120 nM | 99% | – | – | – | Cc1ccc(-c2nn(CC3CCc4c(cccc4OCC(=O)O)C3)c(=O)cc2-c2ccccc2)cc1 (racemic) | –
18 | 6 nM | 98% | 200 nM | 100% | 48 nM | – | – | O=C(O)COc1cccc2c1CC[C@@H](Cn1ncc(-c3cccc(F)c3F)c(-c3ccc(F)cc3)c1=O)C2 (racemic) | Activity (Rattus norvegicus [8]; Heart right ventricle): inactive; Activity (Rattus norvegicus [9]; Heart right ventricle): inactive; bioavailability [15]: 76%; half-life [16]: 2 h; EC50 [14]: 140 nM
19 | 9.5 nM | 81% | 28 nM | 107% | 11 nM | – | – | COc1cccc(-c2cc(=O)n(CC3CCc4c(cccc4OCC(=O)O)C3)nc2-c2ccc(C)cc2)c1 (racemic) | –
20 | 1720 nM | 87% | > 10000 nM | – | – | Unstable | Unstable | COc1cccc(-c2nn(CC3CCc4c(cccc4OCC(=O)O)C3)c(=O)cc2-c2ccccc2)c1 (racemic) | –
21 | 140 nM | 101% | 690 nM | 81% | 48 nM | Unstable | Unstable | COc1cccc(-c2cnn(CC3CCc4c(cccc4OCC(=O)O)C3)c(=O)c2-c2ccccc2)c1 (racemic) | –
22 | 140 nM | 91% | 370 nM | 116% | – | – | – | O=C(O)COc1cccc2c1CCC(Cn1ncc(-c3ccccc3)c(-c3ccccc3F)c1=O)C2 (racemic) | –
23 | 37 nM | 97% | 350 nM | 85% | 6 nM | Unstable | Unstable | COc1cccc(-c2cc(=O)n(CC3CCc4c(cccc4OCC(=O)O)C3)nc2-c2ccccc2)c1F (racemic) | –
24 | 4 nM | 72% | 11 nM | 105% | – | Unstable | Unstable | COc1ccc(-c2c(-c3ccccc3)cnn(CC3CCc4c(cccc4OCC(=O)O)C3)c2=O)cc1 (racemic) | –
25 | 60 nM | 88% | 310 nM | 96% | 17 nM | Unstable | Unstable | COc1cccc(-c2cc(=O)n(CC3CCc4c(cccc4OCC(=O)O)C3)nc2-c2ccccc2)c1 (racemic) | –
26 | 60 nM | 82% | 410 nM | 103% | 88 nM | – | – | O=C(O)COc1cccc2c1CCC(Cn1ncc(-c3cccc(F)c3)c(-c3ccccc3)c1=O)C2 (racemic) | –
27 | 60 nM | 77% | 360 nM | 62% | 61 nM | – | – | O=C(O)COc1cccc2c1CCC(Cn1nc(-c3ccccc3)c(-c3cccc(Cl)c3)cc1=O)C2 (racemic) | –
28 | 969 nM | 60% | 2190 nM | 70% | 21 nM | – | – | O=C(O)COc1cccc2c1CCC(Cn1nc(-c3ccccc3)c(-c3ccccc3)cc1=O)C2 (racemic) | –
29 | 114 nM | 89% | 1500 nM | 93% | – | – | – | O=C(O)COc1cccc2c1CCC(Cn1nc(-c3ccc(F)cc3)c(-c3ccccc3)cc1=O)C2 (racemic) | –
30 | 85 nM | 84% | 174 nM | 100% | – | Unstable | Unstable | COc1ccc(-c2c(-c3ccccc3)cnn(CC3CCc4c(cccc4OCC(=O)O)C3)c2=O)cc1F (racemic) | –
31 | 100 nM | 75% | 260 nM | 88% | 180 nM | – | – | O=C(O)COc1cccc2c1CCC(Cn1ncc(-c3ccccc3)c(-c3ccccc3)c1=O)C2 (racemic) | –
